From patent publication US20140038889A1, “Modulators Of The GPR119 Receptor And The Treatment Of Disorders Related Thereto” (ARENA PHARMACEUTICALS, INC., priority 2011, published 2014)
In brackets after ≈: the same amount, converted by molar mass. Entries after “also recorded” stand apart in the source; their conditions may differ. Where a name gives a salt, the structure may show the parent alone.

Experiments:
humans = conditions: human studies, infusion, over 24 hours; cited from earlier work
Male SD rats = test: Gastric emptying in male SD rats (stomach content 6 h post-dosing); type: in vivo; conditions: SD rats, 3, 10 or 30 mg/kg orally
Procedure: Male SD rats were fasted for 18 h and randomly grouped (n=5). Fasted rats were allowed to access food for 30 min, and the amount of food consumed was recorded for each rat. At the end of the 30 min food intake, rats were put in cages without food and water, and dosed with Compound 1 at 3, 10, or 30 mg/kg, or vehicle control (20% HPCD) orally, or with exendin-4 (Ex-4) at 100 μg/kg i.p. Six hours post-dosing, rats were euthanized with CO2, and stomach content was determined.

Solubility of Compound 1 = type: physicochemical
Procedure: To a solution of 5-fluoro-4-(2-methyl-6-(methylsulfonyl)pyridin-3-yloxy)-6-(piperidin-4-yloxy)pyrimidine hydrochloride (200 mg, 0.477 mmol) and 2,5-dioxopyrrolidin-1-yl 1-methylcyclopropyl carbonate (247 mg, 1.16 mmol) in DCM (3.5 mL) was added triethylamine (0.333 mL, 2.387 mmol). The reaction mixture was stirred at room temperature for 2 h. The mixture was concentrated under reduced pressure and the residue was purified by silica gel flash column chromatography to give the title compound as a white solid (183 mg, 80% yield). Exact mass calculated for C21H25FN4O6S: 480.15. found: LCMS m/z=481.2 [M+H]^+; ^1H NMR (400 MHz, CDCl3) δ ppm 0.63-0.66 (m, 2H), 0.87-0.90 (m, 2H), 1.56 (s, 3H), 1.82-1.84 (m, 2H), 2.02-2.04 (m, 2H), 2.55 (s, 3H), 3.35 (s, 3H), 3.28-3.37 (m, 2H), 3.78-3.79 (m, 2H), 5.36-5.40 (m, 1H), 7.68 (d, J=12 Hz, 1H), 8.01 (d, J=8 Hz, 1H), 8.07 (s, 1H). Solubility: <0.001 mg/mL (H2O); 2.758 mg/mL (20% HPCD).

GPR119 receptor = target: T1, GPR119 receptor (Homo sapiens, UniProt Q8TDV5); test: HTRF cAMP detection assay in CHO-K1 cells stably expressing the GPR119 receptor; type: cell-based
T1 construct: expressed in transfected cells
T1 sequence (Q8TDV5 2-335): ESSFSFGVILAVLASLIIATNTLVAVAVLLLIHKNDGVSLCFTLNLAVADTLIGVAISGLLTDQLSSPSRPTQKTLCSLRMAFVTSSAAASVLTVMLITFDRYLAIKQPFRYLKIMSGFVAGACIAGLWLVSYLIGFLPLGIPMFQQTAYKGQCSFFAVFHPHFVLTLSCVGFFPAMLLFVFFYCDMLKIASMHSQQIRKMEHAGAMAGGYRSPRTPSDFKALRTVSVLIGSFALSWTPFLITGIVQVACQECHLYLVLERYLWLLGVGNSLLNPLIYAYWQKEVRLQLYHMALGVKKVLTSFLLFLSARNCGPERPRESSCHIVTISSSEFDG
Procedure: GPR119 agonist, Compound 1, was evaluated in an HTRF® cAMP detection assay (Cisbio, cAMP Dynamic 2 Assay Kit; #62AM4PEJ) according to the manufacturer's instructions using CHO-K1 cells stably expressing the GPR119 receptor. CHO-K1 cells were transduced with a lentiviral vector encoding the nucleotide sequence of GPR119 (NCBI mRNA and protein reference sequences: NM_178471.2 & NP_848566). The N-terminus of the GPR119 nucleotide sequence was modified to replace the first, methionine-coding, codon with a nucleotide sequence coding for a standard, nine amino acid, hemagglutinin tag. Following transduction, cells expressing the GPR119 receptor were isolated and a single clone was isolated following standard dilution-cloning procedures. On the day of the assay, cultured CHO-GPR119 cells were harvested, suspended in assay buffer and plated into 384-well assay plates (PerkinElmer® Proxiplate® #6008280) at a density of 2,000 cells per well. A cAMP standard curve was added to each plate. Compound 1 was dissolved in DMSO, serially diluted in DMSO and then diluted in assay buffer before addition to the cells. Compound 1 was evaluated in triplicate, using 10-point, 5-fold serial dilutions starting at 10 μM. […] Plates were then incubated at room temperature for 1 h prior to reading. Time-resolved fluorescence measurements were collected on PerkinElmer Envision™ or BMG Pherastar™ microplate readers. […]

Male ZDF rats = test: Oral glucose tolerance test (oGTT) in male ZDF rats; type: in vivo; conditions: for % Inhibition of Glucose Excursion: AUC relative to vehicle control, ZDF rats
Procedure: Male ZDF rats were fasted for 18 h and randomly grouped (n=6) to receive the GPR119 agonist Compound 1(3 or 10 mg/kg), the control compound, Januvia (3 mg/kg), or a combination of Compound 1(3 mg/kg) and Januvia (3 mg/kg). The compounds were delivered orally via a gavage needle (p.o., volume 4 mL/kg) 60 min prior to glucose bolus (3 g/kg) (time=−60 min in FIG. 4), with a separate group receiving vehicle (20% hydroxypropyl-beta-cyclodextrin (HPCD)) as control. At time 0 min, a glucose bolus was administered. Levels of blood glucose were assessed using a glucometer (One-Touch Ultra™, LifeScan) at time −60 min (prior to compound administration), at 0 min (at time when glucose bolus was given), and at 30, 60, 90, and 120 min post glucose bolus. The plasma glucose excursion curve (FIG. 4) is shown.

Male 129SVE mice [1] = test: GIP release in male 129SVE mice (plasma total GIP, ELISA); type: in vivo; conditions: 3 or 30 mg/kg p.o., 45 min
Procedure: Male 129SVE mice (approximately 8 weeks old) were fasted for 18 h and randomly grouped (n=6) to receive a GPR119 agonist (Compound 1) at 3 or 30 mg/kg body weight. Compound 1 was delivered orally via a gavage needle (4 mL/kg), and after 45 min, a blood sample was collected to determine plasma total GIP levels. A separate control group received vehicle (PET (80% PEG:10% Ethanol:10% Tween80™)). Plasma GIP levels were determined using a GIP (total) ELISA kit from Millipore.

Male 129SVE mice [2] = test: Oral glucose tolerance test (oGTT) in male 129SVE mice; type: in vivo; conditions: for Plasma Glucose, Mean: n=6
Procedure: Male 129SVE mice (approximately 8 weeks old) were fasted for 18 h and randomly grouped (n=6) to receive a GPR119 agonist (Compound 1) at 3, or 10 mg/kg body weight. Compound 1 was delivered orally via a gavage needle (p.o., volume at 4 mL/kg) 30 minutes prior to glucose bolus (3 g/kg) (time=−30 min in FIG. 1), with a separate group receiving vehicle (20% hydroxypropyl-beta-cyclodextrin (HPCD) as a control. At time 0 min the glucose bolus was administered. Levels of blood glucose were assessed using a glucometer (One-Touch Ultra™, LifeScan) at time −30 min (prior to compound administration), at 0 min (when the glucose bolus was given), and at 20, 40, 60, 120 min post glucose bolus. The plasma glucose level (Table A) and glucose excursion curve (FIG. 1) are shown. Glucose excursion reduction (area under the curve (AUC)) in compound-treated animals relative to vehicle control is shown in FIG. 2.

[3] = 3 mg/kg p.o. 60 min prior to glucose bolus (3 g/kg)

Compound: PYY3-36: form of Peptide YY generated from PYY1-36 by cleavage of the N-terminal Tyr and Pro residues by DPP-IV
- Reduction of food intake (humans): 33%

Compound: Cc1nc(S(C)(=O)=O)ccc1Oc1ncnc(OC2CCN(C(=O)OC3(C)CC3)CC2)c1F [Compound 1, 1-methylcyclopropyl 4-(5-fluoro-6-(2-methyl-6-(methylsulfonyl)pyridin-3-yloxy)pyrimidin-4-yloxy)piperidine-1-carboxylate]
- Effect on gastric emptying (in words) (Male SD rats): had an effect on gastric emptying at high dosage (30 mg/kg), but that effect was less pronounced than the positive control, Ex-4
- solubility (Solubility of Compound 1; 20% HPCD, aqueous with cosolvent or surfactant or cyclodextrin): 2.76 mg/mL (≈ 5.74 mM)
- solubility (Solubility of Compound 1; water, H2O): < 0.001 mg/mL
- Agonist activity at GPR119 (in words) (GPR119 receptor): potent and selective agonist; also recorded: full agonist
- EC50 (GPR119 receptor; CHO-K1 cells stably expressing GPR119, 1 h incubation): 0.0149 µM
- % Inhibition of Glucose Excursion (Male ZDF rats; [3]): 14.8%
- % Inhibition of Glucose Excursion (Male ZDF rats; 10 mg/kg p.o. 60 min prior to glucose bolus (3 g/kg)): 26.2%
- Effect on blood glucose after a challenge with glucose (in words) (Male ZDF rats; diabetic ZDF rats, 3 or 10 mg/kg p.o.): lowered blood glucose
- Release of GIP (plasma total GIP, in words) (Male 129SVE mice [1]): stimulates the release of GIP
- Plasma Glucose, Mean (Male 129SVE mice [2]; 3 mg/kg p.o., 0 min relative to glucose bolus): 92.0 mg/dL
- Plasma Glucose, Mean (Male 129SVE mice [2]; 3 mg/kg p.o., 20 min post glucose bolus (3 g/kg)): 207.0 mg/dL
- Plasma Glucose, Mean (Male 129SVE mice [2]; 3 mg/kg p.o., 40 min post glucose bolus (3 g/kg)): 280.6667 mg/dL
- Plasma Glucose, Mean (Male 129SVE mice [2]; 3 mg/kg p.o., 60 min post glucose bolus (3 g/kg)): 248.8333 mg/dL
- Plasma Glucose, Mean (Male 129SVE mice [2]; 3 mg/kg p.o., 120 min post glucose bolus (3 g/kg)): 161.8333 mg/dL
- Plasma Glucose, Mean (Male 129SVE mice [2]; 3 mg/kg p.o., -30 min relative to glucose bolus (prior to compound administration)): 75.17 mg/dL
- Plasma Glucose, Mean (Male 129SVE mice [2]; 10 mg/kg p.o., 0 min relative to glucose bolus): 94.5 mg/dL
- Plasma Glucose, Mean (Male 129SVE mice [2]; 10 mg/kg p.o., 20 min post glucose bolus (3 g/kg)): 190.3333 mg/dL
- Plasma Glucose, Mean (Male 129SVE mice [2]; 10 mg/kg p.o., 40 min post glucose bolus (3 g/kg)): 229.6667 mg/dL
- Plasma Glucose, Mean (Male 129SVE mice [2]; 10 mg/kg p.o., 60 min post glucose bolus (3 g/kg)): 199.6667 mg/dL
- Plasma Glucose, Mean (Male 129SVE mice [2]; 10 mg/kg p.o., 120 min post glucose bolus (3 g/kg)): 150.6667 mg/dL
- Plasma Glucose, Mean (Male 129SVE mice [2]; 10 mg/kg p.o., -30 min relative to glucose bolus (prior to compound administration)): 71.5 mg/dL
- Effect on blood glucose after challenge with glucose (in words) (Male 129SVE mice [2]; male 129SVE mice, 3 or 10 mg/kg p.o.): lowered blood glucose
- Effect on plasma glucose levels in oGTT (in words) (Male 129SVE mice [2]; male 129SVE mice, dose of 10 mg/kg): significantly reduced plasma glucose levels

Compound: N[C@@H](CC(=O)N1CCn2c(nnc2C(F)(F)F)C1)Cc1cc(F)c(F)cc1F [Januvia, dihydrogenphosphate salt of 3(R)-amino-1-[3-(trifluoromethyl)-5,6,7,8-tetrahydro[1,2,4]triazolo[4,3-a]pyrazin-7-yl]-4-(2,4,5-trifluorophenyl)butan-1-one, reference compound]
- % Inhibition of Glucose Excursion (Male ZDF rats; [3]): 57.0%
